≈ marks a conversion by molar mass, not a printed value. Where two headings read alike, the source gives them in different places.
Key:
M. tuberculosis H37Rv [1] = experiment: microbe, parasite or virus in culture; format: cell-based
HepG2 cells = conditions: for Cytotoxicity (in words) / TD50 / Concentration of mild cytotoxicity: HepG2 cells; for TD50: 3 days; for Selective index: ratio TD50 (HepG2) to MIC99 (H37Rv)
in vitro = conditions: for microsomal CLint at 1 μg/ml / microsomal CLint: microsomes, pH 7.4; for Microsomal stability / clearance (in words), human: human microsomes; for Microsomal stability / clearance (in words), mouse: mouse microsomes
Protocol: The intrinsic clearance (CLint) of compounds was measured in both mouse and human liver microsomes. Briefly, 100 μg of mouse (CD-1) or human liver microsomes (both from Invitrogen) were mixed in 0.1 M phosphate buffer (pH 7.4) containing 0.01 μl of compound dissolved in dimethyl sulfoxide (DMSO) at 10 mg/ml in a final volume of 50 μl. In parallel, an NADPH-regenerating system (Promega) was prepared in 0.1 M phosphate buffer (pH 7.4). […] After 0, 5, 15, 30, and 60 min, the reactions were terminated by transferring […] into 100 μl of acetonitrile and placing the mixture on ice for 30 min for full protein precipitation. […] After 0 and 60 min, the reactions were terminated, prepared and analyzed as previously described.

[2] = Water solubility, shake flask method; format: physicochemical; conditions: for solubility at 3 days: 25 °C, water, thermodynamic from solid
Protocol: Water solubility measurements were performed using the shake flask method ([28]). Approximately 1 ml of water was added to 1 mg of compound in an Eppendorf tube, followed by incubation for 3 days at 25°C with shaking at 800 rpm. Suspensions were centrifuged at 16,100 × g for 10 min, and the supernatant was filtered using 0.22-μm-pore size filters. Filtrates were injected onto a high-performance liquid chromatography (HPLC) column (Dionex), and the amount of compound was quantified using a calibration curve.

[3] = mouse microsomes; cited from earlier work
[4] = human microsomes; cited from earlier work
M. tuberculosis H37Rv [5] = experiment: Murine model of chronic TB; format: in vivo, Mycobacterium tuberculosis; conditions: BALB/cByJ mice, 50 mg/kg by gavage 5 days a week for 4 weeks
[6] = Mycobacterium tuberculosis, H37RV, REMA, 7H9 broth, 6 days + 24 h resazurin, read-out: MIC99 H37Rv
[7] = Mycobacterium tuberculosis, H37Rv, read-out: MIC

SMILES | MIC (M. tuberculosis H37Rv [1]; [6]) [mg/L] | melting point [°C] | TD50 (HepG2 cells) [µg/mL] | microsomal CLint at 1 μg/ml (in vitro; CD-1, mouse) [µL/min/mg] | Microsomal stability / clearance (in words), human (in vitro) | microsomal CLint at 1 μg/ml (in vitro; human) [µL/min/mg] | solubility at 3 days [2] [µg/mL] | also measured
Cc1oncc1S(=O)(=O)N1CCN(c2nc(=O)c3cc(C(F)(F)F)cc([N+](=O)[O-])c3s2)CC1 [compound 11326126] | 1.6 | 281 to 283 |  |  |  |  |  | 
CCCCc1ccc(S(=O)(=O)N2CCN(c3nc(=O)c4cc(C(F)(F)F)cc([N+](=O)[O-])c4s3)CC2)cc1 [compound 11326124] | 800 | 226 to 229 |  |  |  |  |  | 
O=c1nc(N2CCN(S(=O)(=O)c3ccc(OC(F)(F)F)cc3)CC2)sc2c([N+](=O)[O-])cc(C(F)(F)F)cc12 [compound 11326120] | 0.1 |  |  |  |  |  |  | 
CCCCS(=O)(=O)N1CCN(c2nc(=O)c3cc(C(F)(F)F)cc([N+](=O)[O-])c3s2)CC1 [compound 11626093] | 0.001 | 215 to 219 | >100 | 42 | metabolically stable | 6.4 | 0.105 ± 0.05 (≈ 0.219 µM) | Cytotoxicity (in words) (HepG2 cells): not cytotoxic; Selective index (HepG2 cells): >100,000; Microsomal stability / clearance (in words), mouse (in vitro): highly unstable; Fold less active than MCZ (MIC99 relative to MCZ) (M. tuberculosis H37Rv [1]; H37Rv): 5 fold; MIC (M. tuberculosis H37Rv [1]; H37Rv): 1 mg/L (≈ 2.08 µM); Times less soluble in water than 11626095, 11626092 and 11626091 [2]: at least 100 times
O=c1nc(N2CCN(S(=O)(=O)C3CCCCC3)CC2)sc2c([N+](=O)[O-])cc(C(F)(F)F)cc12 [compound 11326127] | 0.006 |  | >100 | 19 | medium clearances | 21.5 | < 0.01 | Cytotoxicity (in words) (HepG2 cells): not cytotoxic; Microsomal stability / clearance (in words), mouse (in vitro): medium clearances; MIC99 (M. tuberculosis H37Rv [1]; Mycobacterium tuberculosis, H37RV): 6 nM (≈ 3.04 ng/mL); Times less soluble in water than 11626095, 11626092 and 11626091 [2]: at least 100 times
CCS(=O)(=O)N1CCN(c2nc(=O)c3cc(C(F)(F)F)cc([N+](=O)[O-])c3s2)CC1 [compound 11626092] | 0.003 | 204 to 207 | 8.90 | 3 | lowest clearances | 1.4 | 10.7 ± 4.6 (≈ 23.6 µM) | Concentration of mild cytotoxicity (HepG2 cells): around 10 μg/ml; Selective index (HepG2 cells): 2,967; Microsomal stability / clearance (in words), mouse (in vitro): lowest clearances; MIC (M. tuberculosis H37Rv [1]; [7]): 0.003 mg/L (≈ 0.00663 µM)
CCC(C)(C)c1ccc(S(=O)(=O)N2CCN(c3nc(=O)c4cc(C(F)(F)F)cc([N+](=O)[O-])c4s3)CC2)cc1 [compound 11326125] | 0.5 | 231 to 233 |  |  |  |  |  | 
O=c1nc(N2CCN(S(=O)(=O)c3cccc4cnccc34)CC2)sc2c([N+](=O)[O-])cc(C(F)(F)F)cc12 [compound 11626094] | 0.01 | 243 to 245 | 100.00 | 24 | highly unstable | 277 | 0.088 ± 0.04 (≈ 0.16 µM) | Cytotoxicity (in words) (HepG2 cells): not cytotoxic; Selective index (HepG2 cells): 10,000; Times less soluble in water than 11626095, 11626092 and 11626091 [2]: at least 100 times
O=c1nc(N2CCN(S(=O)(=O)c3cc(Cl)c(Cl)s3)CC2)sc2c([N+](=O)[O-])cc(C(F)(F)F)cc12 [compound 11326122] | 0.8 | 265 to 267 |  |  |  |  |  | 
NC(=O)N1c2ccccc2C=Cc2ccccc21 [Carbamazepine, reference compound] |  |  |  |  |  |  |  | microsomal CLint (in vitro; CD-1, mouse): 0.6 µL/min/mg; microsomal CLint (in vitro; human): 0.4 µL/min/mg
Cc1noc(C)c1S(=O)(=O)N1CCN(c2nc(=O)c3cc(C(F)(F)F)cc([N+](=O)[O-])c3s2)CC1 [compound 11326056] | 0.06 | 265 to 267 |  |  |  |  |  | 
CCn1cc(S(=O)(=O)N2CCN(c3nc(=O)c4cc(C(F)(F)F)cc([N+](=O)[O-])c4s3)CC2)c(C)n1 [compound 11326058] | 0.4 | 218 to 220 |  |  |  |  |  | 
O=c1nc(N2CCN(S(=O)(=O)c3cccs3)CC2)sc2c([N+](=O)[O-])cc(C(F)(F)F)cc12 [compound 11326059] | 0.004 | 210 to 214 | 100 | 18.6 | medium clearances | 16.8 | < 0.01 | Cytotoxicity (in words) (HepG2 cells): not cytotoxic; Selective index (HepG2 cells): 25,000; Microsomal stability / clearance (in words), mouse (in vitro): medium clearances; Times less soluble in water than 11626095, 11626092 and 11626091 [2]: at least 100 times
C[C@H]1COC2(CCN(c3nc(=O)c4cc(C(F)(F)F)cc([N+](=O)[O-])c4s3)CC2)O1 [BTZ043] |  |  |  |  |  |  |  | CLint mouse microsome [3]: 16.5 μl/min/mg protein; CLint human microsome [4]: 4.20 μl/min/mg protein
COC(=O)c1sccc1S(=O)(=O)N1CCN(c2nc(=O)c3cc(C(F)(F)F)cc([N+](=O)[O-])c3s2)CC1 [compound 11326128] | 0.1 | 127 to 129 |  |  |  |  |  | 
O=c1nc(N2CCN(S(=O)(=O)C3CC3)CC2)sc2c([N+](=O)[O-])cc(C(F)(F)F)cc12 [compound 11626091] | 0.003 | 201 to 204 | 8.10 | 2.7 | lowest clearances | 9.7 | 8.6 ± 3.8 (≈ 18.5 µM) | Concentration of mild cytotoxicity (HepG2 cells): around 10 μg/ml; Selective index (HepG2 cells): 2,700; Microsomal stability / clearance (in words), mouse (in vitro): lowest clearances; Fold less active than MCZ (MIC99 relative to MCZ) (M. tuberculosis H37Rv [1]; H37Rv): 15 fold; Bacterial burden in lungs lower than untreated control (M. tuberculosis H37Rv [5]): 0.46 log10 CFU; Bacterial burden in spleens lower than untreated control (M. tuberculosis H37Rv [5]): 1.03 log10 CFU
CC(=O)c1ccc(S(=O)(=O)N2CCN(c3nc(=O)c4cc(C(F)(F)F)cc([N+](=O)[O-])c4s3)CC2)cc1 [compound 11326119] | 50 | 280 to 282 |  |  |  |  |  | 
O=c1nc(N2CCN(S(=O)(=O)c3ccc(C(F)(F)F)cc3)CC2)sc2c([N+](=O)[O-])cc(C(F)(F)F)cc12 [compound 11326123] | 0.1 | 222 to 225 |  |  |  |  |  | 
CS(=O)(=O)N1CCN(c2nc(=O)c3cc(C(F)(F)F)cc([N+](=O)[O-])c3s2)CC1 [compound 11626095] | 0.02 | 186 to 188 | 7.80 | 0.9 | lowest clearances | 1 | 10.6 ± 1.8 (≈ 24.2 µM) | Concentration of mild cytotoxicity (HepG2 cells): around 10 μg/ml; Selective index (HepG2 cells): 390; Microsomal stability / clearance (in words), mouse (in vitro): lowest clearances; MIC (M. tuberculosis H37Rv [1]; [7]): 0.02 mg/L (≈ 0.0456 µM)
Cc1nn(C)cc1S(=O)(=O)N1CCN(c2nc(=O)c3cc(C(F)(F)F)cc([N+](=O)[O-])c3s2)CC1 [compound 11326061] | 0.4 | 200 to 203 |  |  |  |  |  | 
O=c1nc(N2CCN(S(=O)(=O)c3ccc(Cl)s3)CC2)sc2c([N+](=O)[O-])cc(C(F)(F)F)cc12 [compound 11326121] | 0.03 | 210 to 213 |  |  |  |  |  | 
CO[C@H]1/C=C/O[C@@]2(C)Oc3c(C)c(O)c4c(O)c(c(/C=N/N5CCN(C)CC5)c(O)c4c3C2=O)NC(=O)/C(C)=C\C=C\[C@H](C)[C@H](O)[C@@H](C)[C@@H](O)[C@@H](C)[C@H](OC(C)=O)[C@@H]1C [Rifampin, reference compound] | 0.0008 |  | 100.00 |  |  |  |  | 
